The text below walks through data of US12564572B2, “Topical ocular delivery of cromakalim” (QLARIS BIO, INC., priority 2022, dated 2026).

Data set [1] relates to patients with primary open-angle glaucoma. As to conditions: cited from earlier work.
A further data set has as its system KATP channels. The conditions noted are these: in the presence of ATP; cited from earlier work.
The subject of another data set is rabbit eyes. As to conditions: 0.5% cromakalim in 0.02 M phosphate buffer; cited from earlier work.
The next data set deals with Dutch Belted rabbits. The data set is described as follows: 28 day repeated dose toxicology and toxicokinetic study by ocular topical administration in Dutch Belted rabbits (Example 12). As to conditions: rabbit, in vivo, topical or ocular; for Tmax: male. Here is the method: Plasma concentrations of levcromakalim were evaluated in DB rabbits after twice a day (BID) oculus uterque (OU, both eyes) topical ophthalmic (T.O.) administration of formulation 3d for 28 days at dose levels of 0, 0.012, 0.03, and 0.06 mg/eye/dose.
Plasma concentrations of levcromakalim were evaluated in DB rabbits after BID OU T.O. administration of three concentrations of formulation 3d at dose levels of 0, 0.012, 0.03, and 0.06 mg/eye/dose (0, 0.024, 0.06, and 0.12 mg/eye/day respectively or 0.030% [1.0 mM], 0.075% [2.5 mM], or 0.15% [5 mM] respectively) for 28 days. Plasma was collected from 3 animals/dose group at pre-dose, 0.5, 1, 2, 3, 4, 6, and 12 hours post-first dose on Days 1 and 28.

As to `CC1(C)Oc2ccc(C#N)cc2[C@@H](N2CCCC2=O)[C@@H]1OP(=O)(O)O` [QLS-101], the “Hyperemia (eye redness)” value in data set [1] (in vivo) is “no evidence of hyperemia”. For the same compound, in data set [1] (patients with primary open-angle glaucoma), the Efficacy entry is on record as “positive efficacy signal”.

Take `CC1(C)Oc2ccc(C#N)cc2C(N2CCCC2=O)C1O` (centres unmarked) [cromakalim]: the “Increase of open-state probability (Popen) of single KATP channels” value with KATP channels is listed as “more than 9 fold”. Moreover, in the data set on rabbit eyes, the “Effect on IOP after topical administration” value is given as “tended to increase IOP”.

As usually defined, the Tmax is the time from dosing to the highest level. In the data set on Dutch Belted rabbits (female, 0.03 mg), `CC1(C)Oc2ccc(C#N)cc2[C@@H](N2CCCC2=O)[C@@H]1O` [levcromakalim] returned an AUCtlast of 3.99 ng·h/mL. The compound further showed a t1/2 with Dutch Belted rabbits (female, 0.06 mg) of 1.77. For the same compound, the Tmax with Dutch Belted rabbits (0.012 mg) came out at 70.2 min; with Dutch Belted rabbits (0.06 mg), 42 min.
